Consider 28 molecules from ChEMBL document CHEMBL1777694, “Quinazolinedione sulfonamides: a novel class of competitive AMPA receptor antagonists with oral activity” (Bioorg Med Chem Lett, 2011).

In series [1] the target is T1, Glutamate NMDA receptor (Rattus norvegicus) (UniProt P35439+Q00959+Q00960+Q00961+Q62645+Q8VHN2+Q9R1M7). Briefly: Inhibition of NMDA receptor glycine site in rat brain homogenate at 100 uM. Format: tissue-based.
A short description of series [2]: Displacement of [3H]CNQX from AMPA receptor in rat brain homogenate. Format: tissue-based.
For series [3], the species on record is Rattus norvegicus. The experiment in a line: Inhibition of AMPA receptor in rat brain homogenate at 10 uM. Format: tissue-based.
The target in series [4] is T1, Glutamate NMDA receptor (Rattus norvegicus). The experiment in a line: Inhibition of NMDA receptor glycine site in rat brain homogenate at 10 uM. Format: tissue-based.
The species named for series [5] is Rattus norvegicus. Briefly: Inhibition of AMPA receptor in rat brain homogenate at 100 uM. Format: tissue-based.
In series [6] the test system is Mus musculus. The experiment in a line: Anticonvulsant activity in po dosed DBA2 mouse assessed as inhibition of sound-induced seizures. Format: functional, organism-based.
Series [7] relates to Mus musculus. Briefly: Anticonvulsant activity in OF1 mouse assessed as inhibition of electroshock-induced seizures at 30 mg/kg, ip administered 1 hr before electroshock challenge. The conditions noted are these: route intraperitoneal. Format: functional.
Series [8] deals with Mus musculus. The experiment in a line: Anticonvulsant activity in po dosed OF1 mouse assessed as inhibition of electroshock-induced seizures administered 1 hr before electroshock challenge. Format: functional.
For series [9], the target named is Glutamate receptor 2 (Homo sapiens) (UniProt P42262). The experiment in a line: Binding affinity to human GluA2 by X-ray crystallography.
For another series, the target named is Glutamate NMDA receptor. The experiment in a line: Displacement of [3H]MDL105519 from NMDA receptor glycine site in rat brain homogenate. Format: tissue-based.
The subject of series [10] is Mus musculus. The experiment in a line: Anticonvulsant activity in OF1 mouse assessed as inhibition of electroshock-induced seizures at 30 mg/kg, po administered 1 hr before electroshock challenge. Format: functional.
Series [11] can be described thus: Dissociation constant, pKa of the compound. Format: physicochemical.

The structures appear in SMILES notation. The source made the active and inactive calls. No cut-off for these calls is given here. Some results are limits rather than exact numbers.

Glutamate receptor 2 (Homo sapiens), sequence (P42262 whole entry): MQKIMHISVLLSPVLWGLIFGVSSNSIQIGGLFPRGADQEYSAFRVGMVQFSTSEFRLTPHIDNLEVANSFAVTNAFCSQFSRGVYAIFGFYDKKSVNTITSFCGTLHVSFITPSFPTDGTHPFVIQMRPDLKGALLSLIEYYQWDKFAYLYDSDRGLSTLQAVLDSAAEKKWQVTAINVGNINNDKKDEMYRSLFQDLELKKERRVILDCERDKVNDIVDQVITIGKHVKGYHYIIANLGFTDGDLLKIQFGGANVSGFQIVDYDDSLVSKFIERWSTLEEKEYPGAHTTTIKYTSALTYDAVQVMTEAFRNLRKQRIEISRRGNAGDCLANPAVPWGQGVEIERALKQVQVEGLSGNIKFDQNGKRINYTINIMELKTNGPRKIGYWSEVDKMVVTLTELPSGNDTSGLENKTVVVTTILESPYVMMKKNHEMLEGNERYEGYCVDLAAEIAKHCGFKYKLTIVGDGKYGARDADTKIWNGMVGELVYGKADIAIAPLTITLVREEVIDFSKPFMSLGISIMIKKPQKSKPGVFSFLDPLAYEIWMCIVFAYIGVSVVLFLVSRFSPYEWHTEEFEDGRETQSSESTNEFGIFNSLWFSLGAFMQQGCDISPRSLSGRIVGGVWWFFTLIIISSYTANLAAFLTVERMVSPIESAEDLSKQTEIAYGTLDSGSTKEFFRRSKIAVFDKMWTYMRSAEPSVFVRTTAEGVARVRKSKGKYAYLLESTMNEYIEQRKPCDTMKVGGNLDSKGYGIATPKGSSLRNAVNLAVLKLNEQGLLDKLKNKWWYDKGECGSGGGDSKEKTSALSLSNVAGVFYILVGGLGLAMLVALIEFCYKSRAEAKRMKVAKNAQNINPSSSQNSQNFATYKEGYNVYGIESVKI

Molecule `CS(=O)(=O)Nn1c(=O)[nH]c2cccc(Cl)c2c1=O` gave an inhibition in series [1] of 34%. For the same molecule, the half-inhibitory concentration (IC50) in series [2] was found to be 29 µM.
Molecule `CS(=O)(=O)Nn1c(=O)[nH]c2cc(C(=O)O)ccc2c1=O` displayed an inhibition in the series filed under Rattus norvegicus [3] of 0%.
`CS(=O)(=O)Nn1c(=O)[nH]c2cc(C#N)ccc2c1=O` yielded an inhibition in [4] of 28%. Besides, in series [2], the IC50 stood at 0.75 µM.
As for `Cn1c(=O)n(NS(C)(=O)=O)c(=O)c2ccc(Cl)cc21`, the inhibition turned out to be 36% in [1] and 45% in the series listed under Rattus norvegicus [5].
Turning to `CS(=O)(=O)Nn1c(=O)[nH]c2cc([N+](=O)[O-])c(-n3ccnc3)cc2c1=O`, the inhibition result with Mus musculus [6] and in the series on Mus musculus [8] was “inactive” throughout. In the series on Mus musculus [7], the inhibition in vivo at 30 mg/kg is 40%. This molecule showed an inhibition in series [4] of 24%. Further, the IC50 in series [2] came to 0.082 µM. In addition, the outcome in series [9] was Active.
`CS(=O)(=O)Nn1c(=O)[nH]c2cc(CCc3ccccc3)ccc2c1=O` yielded an inhibition in series [4] of 26%. For the same molecule, the IC50 in [2] worked out at 1.1 µM.
On to `CS(=O)(=O)Nn1c(=O)[nH]c2cc(Cl)c(-n3ccnc3)cc2c1=O`, for which the IC50 turned out to be 17.2 µM at Glutamate NMDA receptor and 0.52 µM in series [2].
For the molecule `CCS(=O)(=O)Nn1c(=O)[nH]c2cc(Cl)ccc2c1=O`, the figures for the IC50 (at Glutamate NMDA receptor; in series [2]) were 35 µM and 2.3 µM, respectively.
On to `CC(C)(C)c1ccc2c(=O)n(NS(C)(=O)=O)c(=O)[nH]c2c1`, for which, in the series on Mus musculus [8], the ED50 was 29.5 mg/kg. Further, the figures for the IC50 (at Glutamate NMDA receptor; in series [2]) were above 100 µM and 4.9 µM, respectively.
As for `O=c1[nH]c2cc(Cl)ccc2c(=O)n1NS(=O)(=O)c1ccccc1`, the concentration for half-maximal inhibition (IC50) at Glutamate NMDA receptor is 9.3 µM; in series [2], 4.9 µM.
On to `CCc1ccc2c(=O)n(NS(C)(=O)=O)c(=O)[nH]c2c1`, for which the ED50 in the series on Mus musculus [8] turned out to be 16 mg/kg. This molecule also came in with an IC50 in [2] of 3 µM.
In the case of `CS(=O)(=O)Nn1c(=O)[nH]c2c(Cl)cccc2c1=O`, the inhibition in [1] stood at 37%. Also, in [2], the IC50 is above 100 µM.
In turn, `CS(=O)(=O)Nn1c(=O)[nH]c2cc(Br)ccc2c1=O` gave an inhibition in series [4] of 49%. For the same molecule, in [2], the IC50 was 2.2 µM.
Take `O=c1[nH]c2cc(Cl)ccc2c(=O)n1NS(=O)(=O)Cc1ccccc1`: the IC50 amounted to 0.21 µM at Glutamate NMDA receptor and 2.9 µM in series [2].
In series [4], `CS(=O)(=O)Nn1c(=O)[nH]c2cc(C(F)(F)F)ccc2c1=O` came in with an inhibition of 13%. Moreover, the ED50 in the series on Mus musculus [8] stood at 54 mg/kg. The values for the IC50 (on Glutamate NMDA receptor; in [2]) were 17.8 µM and 0.92 µM, respectively.
For the molecule `CS(=O)(=O)Nn1c(=O)[nH]c2ccc(Cl)cc2c1=O`, the inhibition in series [1] was found to be 50%. In addition, the IC50 in [2] worked out at 34 µM.
In series [4], `COc1ccc2c(=O)n(NS(C)(=O)=O)c(=O)[nH]c2c1` showed an inhibition of 22%. The inhibition in vivo at 30 mg/kg with Mus musculus [10] was 60%. The IC50 in series [2] amounted to 3.7 µM.
Consider `CS(=O)(=O)Nn1c(=O)[nH]c2cc(C3CCCC3)ccc2c1=O`, for which, in the series filed under Rattus norvegicus [3], the inhibition turned out to be 25%.
`Cn1cnc(S(=O)(=O)Nn2c(=O)[nH]c3cc(Cl)ccc3c2=O)c1` showed an IC50 in series [2] of 1.6 µM.
As to `CS(=O)(=O)Nn1c(=O)[nH]c2cc(F)ccc2c1=O`, the inhibition in series [4] stood at 17%. Also, in series [2], the IC50 came to 8.2 µM.
With `C=Cc1ccc2c(=O)n(NS(C)(=O)=O)c(=O)[nH]c2c1`, the IC50 at Glutamate NMDA receptor was above 10 µM; in series [2], 1.9 µM.
In turn, `CS(=O)(=O)Nn1c(=O)[nH]c2cc(S(C)(=O)=O)ccc2c1=O` came in with an inhibition in the series listed under Rattus norvegicus [3] of 42%. At Glutamate NMDA receptor, this molecule showed an IC50 above 100 µM.
Regarding `CS(=O)(=O)Nn1c(=O)[nH]c2cc(-c3ccccc3)ccc2c1=O`, the inhibition (in [1]; in the series filed under Rattus norvegicus [3]) was 36% in each case.
On to `CS(=O)(=O)Nn1c(=O)[nH]c2cc([N+](=O)[O-])ccc2c1=O`, for which the inhibition in series [4] was 16%. In series [2], this molecule had an IC50 of 1.2 µM.
Regarding `CN(n1c(=O)[nH]c2cc(Cl)ccc2c1=O)S(C)(=O)=O`, the inhibition was found to be 18% in series [1] and 12% in the series filed under Rattus norvegicus [5].
As for `CS(=O)(=O)Nn1c(=O)[nH]c2cc(Cl)ccc2c1=O`, the inhibition in series [4] was 32%. In addition, the ED50 in the series with Mus musculus [8] was determined as 23 mg/kg. For the same molecule, the IC50 in [2] turned out to be 2.4 µM. Also, the pKa in series [11] is 6.9.
`Cc1ccc2c(=O)n(NS(C)(=O)=O)c(=O)[nH]c2c1` came in with an inhibition in series [4] of 13%. Moreover, in the series on Mus musculus [8], the ED50 stood at 9 mg/kg. This molecule also came in with an IC50 in series [2] of 9.7 µM.
For the molecule `CS(=O)(=O)Nn1c(=O)[nH]c2ccccc2c1=O`, the inhibition in series [1] was 48%. In series [2], this molecule had an IC50 of 57 µM.
